Experimental findings from PMC8788145 (Journal of medicinal chemistry, 2017) are described below.

Where “and” joins values, the source holds several entries; their conditions need not be identical. Equal values may be shown once.

Holding throughout (format): biochemical
Experiment [1] has as its target T1, human plasmin (Homo sapiens, UniProt P00747). Put plainly: Direct inhibition of human plasmin, chromogenic substrate. The following applies: for HS (Hill slope): Tris-HCl buffer pH 7.4, 37 °C.
The target of experiment [2] is T1, human plasmin. Nature of the experiment: Michaelis-Menten kinetics of Spectrozyme PL hydrolysis by human plasmin.
Experiment [3] concerns the target T1, human plasmin. Put plainly: Protamine reversibility of plasmin inhibition by NSGM 2. The following applies: plasmin treated with inhibitor 2 (200 μM), pH 7.4, 37 °C.

T1 sequence (P00747 97-580 limits assumed): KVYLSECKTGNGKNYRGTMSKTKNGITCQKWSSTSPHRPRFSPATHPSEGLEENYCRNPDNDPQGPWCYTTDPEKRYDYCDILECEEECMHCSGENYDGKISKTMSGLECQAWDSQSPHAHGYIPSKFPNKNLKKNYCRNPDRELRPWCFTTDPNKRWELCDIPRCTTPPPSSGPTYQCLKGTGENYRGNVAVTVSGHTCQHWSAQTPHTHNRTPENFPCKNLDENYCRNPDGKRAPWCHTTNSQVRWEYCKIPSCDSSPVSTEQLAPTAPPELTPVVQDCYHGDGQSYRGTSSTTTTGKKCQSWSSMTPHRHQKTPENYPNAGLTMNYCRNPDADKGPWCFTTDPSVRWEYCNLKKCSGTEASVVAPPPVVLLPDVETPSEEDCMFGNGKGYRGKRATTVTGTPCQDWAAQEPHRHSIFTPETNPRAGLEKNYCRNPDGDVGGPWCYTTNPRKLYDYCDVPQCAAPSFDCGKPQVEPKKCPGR
T1 sequence (P00747 581-810 limits assumed): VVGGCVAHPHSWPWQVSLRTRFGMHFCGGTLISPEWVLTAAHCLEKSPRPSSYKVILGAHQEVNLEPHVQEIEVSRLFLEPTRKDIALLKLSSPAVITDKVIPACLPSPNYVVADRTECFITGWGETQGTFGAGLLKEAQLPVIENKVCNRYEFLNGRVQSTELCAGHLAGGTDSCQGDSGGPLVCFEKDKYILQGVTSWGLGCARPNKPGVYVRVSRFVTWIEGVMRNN

In the case of `O=c1c(OS(=O)(=O)[O-])c(-c2ccc(OS(=O)(=O)[O-])c(OS(=O)(=O)[O-])c2)oc2cc(OS(=O)(=O)[O-])cc(OCc3ccc(COc4cc(OS(=O)(=O)[O-])cc5oc(-c6ccc(OS(=O)(=O)[O-])c(OS(=O)(=O)[O-])c6)c(OS(=O)(=O)[O-])c(=O)c45)cc3)c12.[Na+].[Na+].[Na+].[Na+].[Na+].[Na+].[Na+].[Na+]`, the “HS (Hill slope)” value on human plasmin [1] is on record as 0.7 ± 0.1. The VMAX at human plasmin [2] ([inhibitor] 1.6 μM, pH 7.4, 37 °C) was 36.3 ± 2.0 mAU/min; at human plasmin [2] ([inhibitor] 8 μM), 29.0 ± 0.6 mAU/min; at human plasmin [2] ([inhibitor] 100 μM), 15.1 ± 1.0 mAU/min; on human plasmin [2] ([inhibitor] 200 μM, listed as 2) it was 10.4 mAU/min and 10.4 ± 0.5 mAU/min.
Regarding `O=c1c(O)c(-c2ccc(O)c(O)c2)oc2cc(O)cc(OCc3ccc(COc4cc(O)cc5oc(-c6ccc(O)c(O)c6)c(O)c(=O)c45)cc3)c12` [1j, 5,5′-((1,4-Phenylenebis(methylene))bis(oxy))bis(2-(3,4-dihydroxyphenyl)-3,7-dihydroxy-4H-chromen-4-one)], the “fold less potent plasmin inhibition than NSGM 2” value on human plasmin [1] (1j versus 2) is “about 18.3 fold”. For the same compound, the VMAX at human plasmin [2] ([inhibitor] 100 μM) was found to be 51.0 ± 4.6 mAU/min; on human plasmin [2] ([inhibitor] 240 μM), 51.7 ± 3.9 mAU/min; on human plasmin [2] ([inhibitor] 400 μM), 51.3 ± 4.0 mAU/min. For the same compound, at human plasmin [2] (from Michaelis-Menten kinetics), the “mechanism of plasmin inhibition” value is recorded as “competitive”. Besides, at human plasmin [2] (inhibitor concentration reaching 400 μM), the “fold increase in KM” value is listed as ~ 13.5 fold. Moreover, on human plasmin [2] (inhibitor concentration reaching 400 μM, essentially unchanged), the “VMAX across inhibitor concentrations” value was 50.6–51.3 mAU/min.
Consider `O=c1cc(-c2ccc(OS(=O)(=O)[O-])cc2)oc2cc(OS(=O)(=O)[O-])cc(OCc3cccc(COc4cc(OS(=O)(=O)[O-])cc5oc(-c6ccc(OS(=O)(=O)[O-])cc6)cc(=O)c45)n3)c12.[Na+].[Na+].[Na+].[Na+]` [NSGM 15, Sodium 4-Oxo-5-((6-(((4-oxo-7-(sulfonatooxy)-2-(4-(sulfonatooxy)phenyl)-4H-chromen-5-yl)oxy)methyl)pyridin-2-yl)methoxy)-2-(4-(sulfonatooxy)phenyl)-4H-chromen-7-yl Sulfate], for which the “HS (Hill slope)” value on human plasmin [1] is recorded as 1.2 ± 0.2.
On the same count and under the same terms, then `O=c1cc(-c2ccc(OS(=O)(=O)[O-])cc2)oc2cc(OS(=O)(=O)[O-])cc(OCc3ccc(COc4cc(OS(=O)(=O)[O-])cc5oc(-c6ccc(OS(=O)(=O)[O-])c(OS(=O)(=O)[O-])c6)c(OS(=O)(=O)[O-])c(=O)c45)cc3)c12.[Na+].[Na+].[Na+].[Na+].[Na+].[Na+]` [NSGM 16, Sodium 4-(4-Oxo-5-((4-(((4-oxo-7-(sulfonatooxy)-2-(4-(sulfonatooxy)phenyl)-4H-chromen-5-yl)oxy)methyl)benzyl)-oxy)-3,7-bis(sulfonatooxy)-4H-chromen-2-yl)-1,2-phenylene Bis(sulfate)], with 0.9 ± 0.1.
As for protamine, the “efficacy of restoring plasmin activity” value at human plasmin [3] was ~ 100%.
